In patent US20230329140A1, “MAC[…]” (Ralco Nutrition Inc., priority 2019, published 2023):

Assays:
[1] = system: soybean; assay: Greenhouse soybean pot trial with magnesium lactate; type: in vivo
Description: Materials and Methods: One soybean seed was planted in each of the 60 individually marked pots using six different treatments in a randomized complete block design. Plants were grown in the greenhouse under controlled and ideal conditions. All pots were handled and cared for the same exact way throughout their entire growing season. Several measurements were recorded during this trial starting with emergence hours, the number of plants emerged, and unifoliate, 1st trifoliate, 3rd trifoliate, 5th trifoliate, and 7th trifoliate leaf area readings. […] of the measurements that were recorded when this trial was harvested are the number of pods, weight of pods, total soybean seed weight per treatment, and average soybean seed weight per pot.
The magnesium lactate improved the efficiency with which the plant builds chlorophyll when it was applied foliar in sparingly small quantities to soybean plants early in their growth stage.

[2] = system: corn; assay: Greenhouse corn pot trial with magnesium lactate; type: in vivo
Description: The corn trial that was conducted using MgL had one corn seed planted in each of the 60 individually marked pots using six different treatments in a randomized complete block design. Plants were grown in the greenhouse under controlled and ideal conditions. All pots were handled and cared for the same exact way throughout their entire growing season. During this trial the emergence hours, the number of plants emerged, and plant height measurements were taken at specific plant stages and recorded. Several measurements were documented when the trial was harvested which were V10 plant height, V10 chlorophyll readings, stalk diameter, and biomass.

CC(O)C(=O)[O-].CC(O)C(=O)[O-].[Mg+2] (stereo not drawn) [MgL, magnesium lactate]
efficiency with which the plant builds chlorophyll ([1]; applied foliar in sparingly small quantities to soybean plants early in their growth stage): improved
soybean yield (average soybean seed weight per pot) ([1]; greenhouse pots, FIG. 8): positive impact
overall performance in comparison to conventional magnesium compounds, such magnesium sulfate (MgSO) ([1]; soybean trial): performed better overall
overall performance in comparison to conventional magnesium compounds, such magnesium sulfate (MgSO) ([2]; corn trial): performed better overall
corn biomass ([2]; greenhouse pots, FIG. 14): positive impact
growth and development of corn ([2]; greenhouse pots, FIGS. 10-14): positive impact
